# Laboratory results taken from patent US20060069132A1, “Azolecarboxamide herbicides” (priority 2004, published 2006).
# What was measured:
# [1] = tested on: barnyardgrass; assay: Test B pre-/postemergence herbicide test; type: in vivo, Echinochloa crus-galli; conditions: for Plant response rating (0 to 100 scale), Barnyardgrass: 0 is no effect, preemergence
# How it was run: (§1)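 Herbicidal effect was judged by eye on a 0–100 scale after plants stood 13 to 15 days in the greenhouse following pre- or postemergence treatment with surfactant-containing formulations.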
# [2] = tested on: Surinam grass; assay: Test B pre-/postemergence herbicide test; type: in vivo, Urochloa decumbens; conditions: for Plant response rating (0 to 100 scale), Surinam Grass: 0 is no effect, 100 is complete control, preemergence; for Surinam Grass plant response rating: scale 0 (no effect) to 100 (complete control)
# How it was run: (§2)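 Evaluation is visual, comparing treated with control plants on a scale where 0 means no effect and 100 means full control. Treatments were preemergence, or postemergence on seedlings 2–18 cm tall, and held 13–15 days in the greenhouse.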
# [3] = tested on: cocklebur; assay: Test B pre-/postemergence herbicide test; type: in vivo, Xanthium strumarium; conditions: for Plant response rating (0 to 100 scale), Cocklebur: 0 is no effect, preemergence
# How it was run: as §1
# [4] = tested on: corn; assay: Test B pre-/postemergence herbicide test; type: in vivo, Zea mays; conditions: for Plant response rating (0 to 100 scale), Corn: 0 is no effect, preemergence
# How it was run: as §2
# [5] = tested on: large crabgrass; assay: Test B pre-/postemergence herbicide test; type: in vivo, Digitaria sanguinalis; conditions: for Plant response rating (0 to 100 scale), Crabgrass, Large: 0 is no effect, preemergence
# How it was run: as §2
# [6] = tested on: giant foxtail; assay: Test B pre-/postemergence herbicide test; type: in vivo, Setaria faberi; conditions: for Plant response rating (0 to 100 scale), Foxtail, Giant: 0 is no effect, preemergence
# How it was run: as §2
# [7] = tested on: lambsquarters; assay: Test B pre-/postemergence herbicide test; type: in vivo, Chenopodium album; conditions: for Lambsquarters plant response rating: scale 0 (no effect) to 100 (complete control)
# How it was run: as §2
# [8] = tested on: morningglory; assay: Test B pre-/postemergence herbicide test; type: in vivo, Ipomoea coccinea; conditions: for Plant response rating (0 to 100 scale), Morningglory: 0 is no effect, 100 is complete control, preemergence; for Morningglory plant response rating: scale 0 (no effect) to 100 (complete control)
# How it was run: as §1
# [9] = tested on: pigweed; assay: Test B pre-/postemergence herbicide test; type: in vivo, Amaranthus retroflexus; conditions: for Plant response rating (0 to 100 scale), Pigweed: 0 is no effect, 100 is complete control, preemergence; for Pigweed plant response rating: scale 0 (no effect) to 100 (complete control)
# How it was run: as §2
# [10] = tested on: velvetleaf; assay: Test B pre-/postemergence herbicide test; type: in vivo, Abutilon theophrasti; conditions: for Plant response rating (0 to 100 scale), Velvetleaf: 0 is no effect, 100 is complete control, preemergence; for Velvetleaf plant response rating: scale 0 (no effect) to 100 (complete control)
# How it was run: as §2
# [11] = tested on: blackgrass; assay: Test B postemergence herbicide test; type: in vivo, Alopecurus myosuroides
# How it was run: (§3)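 Treated at 2-leaf (paddy) or 1–4-leaf, 2–18 cm (postemergence); greenhouse 13–15 d; visual score vs control, 0 none to 100 complete control; dash = not tested.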
# [12] = tested on: wheat; assay: Test B postemergence herbicide test; type: in vivo, Triticum aestivum; parameters: key to Wheat plant response rating: 0 = no effect, 100 = complete control
# How it was run: as §3
# [13] = tested on: wild oat; assay: Test B postemergence herbicide test; type: in vivo, Avena fatua; conditions: scale 0 (no effect) to 100 (complete control)
# How it was run: as §3
# [14] = tested on: rice; assay: Test B flooded paddy test; type: in vivo, Oryza sativa; conditions: 1000 g ai/ha, scale 0 to 100 (0 no effect, 100 complete control)
# How it was run: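 Each value is a visual 0–100 response rating taken against controls 13 to 15 days after treatment in the greenhouse. Plants received formulated chemical postemergence at the 1- to 4-leaf stage or, in flooded paddy, at the 2-leaf stage.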
# [15] = tested on: small flower umbrella sedge; assay: Test B flooded paddy test; type: in vivo, Cyperus difformis; conditions: 1000 g ai/ha, scale 0 to 100 (0 no effect, 100 complete control)
# How it was run: as §3
# [16] = tested on: ducksalad; assay: Test B flooded paddy test; type: in vivo, Heteranthera limosa; conditions: 1000 g ai/ha, scale 0 to 100 (0 no effect, 100 complete control)
# How it was run: as §3
# [17] = tested on: barnyardgrass; assay: Test B flooded paddy test; type: in vivo, Echinochloa crus-galli; conditions: 1000 g ai/ha, scale 0 to 100 (0 no effect, 100 complete control)
# How it was run: as §3
# [18] = 125 g ai/ha, 100 is complete control
# [19] = 125 g ai/ha, visual rating, scale 0 (no effect) to 100 (complete control), postemergence
# [20] = postemergence, 500 g ai/ha, scale 0 to 100, 0 is no effect, 100 is complete control
# [21] = 125 g ai/ha, visual rating, postemergence
# [22] = 500 g ai/ha, scale 0 to 100, 0 no effect, 100 complete control, preemergence
# [23] = Postemergence, 500 g ai/ha, scale 0 (no effect) to 100 (complete control)
smiles,measurement,setting,value
C#CCNC(=O)c1ccc(F)c(NC(=O)c2nn(C(C)(C)C)nc2CC)c1 [Compound 389],"Plant response rating (0 to 100 scale), Barnyardgrass",[1]; [18],0
same,Barnyardgrass plant response rating,[1]; [19],0
same,Barnyardgrass plant response rating,[1]; [20],0
same,"Plant response rating (0 to 100 scale), Surinam Grass",[2]; 125 g ai/ha,0
same,Surinam Grass plant response rating,[2]; [21],0
same,Surinam Grass plant response rating,"[2]; Postemergence, 500 g ai/ha",10
same,"Plant response rating (0 to 100 scale), Cocklebur",[3]; [18],0
same,Cocklebur plant response rating,[3]; [19],0
same,Cocklebur plant response rating,[3]; [20],0
same,"Plant response rating (0 to 100 scale), Corn",[4]; [18],0
same,Corn plant response rating,[4]; [19],0
same,Corn plant response rating,[4]; [20],0
same,"Plant response rating (0 to 100 scale), Crabgrass, Large",[5]; [18],0
same,"Crabgrass, Large plant response rating",[5]; [19],0
same,"Crabgrass, Large plant response rating",[5]; [20],10
same,"Plant response rating (0 to 100 scale), Foxtail, Giant",[6]; [18],0
same,"Foxtail, Giant plant response rating",[6]; [19],0
same,"Foxtail, Giant plant response rating",[6]; [20],10
same,"Plant response rating (0 to 100 scale), Lambsquarters","[7]; 125 g ai/ha, 0 is no effect, 100 is complete control, preemergence",0
same,Lambsquarters plant response rating,[7]; [21],10
same,Lambsquarters plant response rating,"[7]; Postemergence, 500 g ai/ha",30
same,"Plant response rating (0 to 100 scale), Morningglory",[8]; 125 g ai/ha,0
same,Morningglory plant response rating,[8]; [21],0
same,Morningglory plant response rating,"[8]; Postemergence, 500 g ai/ha",0
same,"Plant response rating (0 to 100 scale), Pigweed",[9]; 125 g ai/ha,0
same,Pigweed plant response rating,[9]; [21],20
same,Pigweed plant response rating,"[9]; Postemergence, 500 g ai/ha",40
same,"Plant response rating (0 to 100 scale), Velvetleaf",[10]; 125 g ai/ha,0
same,Velvetleaf plant response rating,[10]; [21],0
same,Velvetleaf plant response rating,"[10]; Postemergence, 500 g ai/ha",20
same,Blackgrass plant response rating,[11]; [19],0
same,Blackgrass plant response rating,[11]; [20],10
same,Wheat plant response rating,[12]; [19],0
same,Wheat plant response rating,[12]; [22],0
same,Wheat plant response rating,[12]; [23],0
same,"Oat, Wild plant response rating",[13]; [21],0
same,"Oat, Wild plant response rating","[13]; Postemergence, 500 g ai/ha",0
same,Rice plant response rating,[14],20
same,"Sedge, Umbrella plant response rating",[15],30
same,Ducksalad plant response rating,[16],0
same,Barnyardgrass plant response rating,[17],0
CCOC(=O)c1cccc(NC(=O)c2nn(C(C)C)nc2C)c1 [Compound 397],"Plant response rating (0 to 100 scale), Barnyardgrass",[1]; [18],0
same,Barnyardgrass plant response rating,[1]; [19],0
same,Barnyardgrass plant response rating,[1]; [23],0
same,"Plant response rating (0 to 100 scale), Surinam Grass",[2]; 125 g ai/ha,0
same,Surinam Grass plant response rating,[2]; [21],10
same,Surinam Grass plant response rating,"[2]; Postemergence, 500 g ai/ha",10
same,"Plant response rating (0 to 100 scale), Cocklebur",[3]; [18],0
same,Cocklebur plant response rating,[3]; [19],0
same,Cocklebur plant response rating,[3]; [23],0
same,"Plant response rating (0 to 100 scale), Corn",[4]; [18],0
same,Corn plant response rating,[4]; [19],0
same,Corn plant response rating,[4]; [23],10
same,"Plant response rating (0 to 100 scale), Crabgrass, Large",[5]; [18],0
same,"Crabgrass, Large plant response rating",[5]; [19],0
same,"Crabgrass, Large plant response rating",[5]; [23],10
same,"Plant response rating (0 to 100 scale), Foxtail, Giant",[6]; [18],0
same,"Foxtail, Giant plant response rating",[6]; [19],10
same,"Foxtail, Giant plant response rating",[6]; [23],40
same,Lambsquarters plant response rating,[7]; [21],0
same,Lambsquarters plant response rating,"[7]; Postemergence, 500 g ai/ha",0
same,"Plant response rating (0 to 100 scale), Morningglory",[8]; 125 g ai/ha,0
same,Morningglory plant response rating,[8]; [21],0
same,Morningglory plant response rating,"[8]; Postemergence, 500 g ai/ha",10
same,"Plant response rating (0 to 100 scale), Pigweed",[9]; 125 g ai/ha,0
same,Pigweed plant response rating,[9]; [21],0
same,Pigweed plant response rating,"[9]; Postemergence, 500 g ai/ha",0
same,"Plant response rating (0 to 100 scale), Velvetleaf",[10]; 125 g ai/ha,0
same,Velvetleaf plant response rating,[10]; [21],10
same,Velvetleaf plant response rating,"[10]; Postemergence, 500 g ai/ha",50
same,Blackgrass plant response rating,[11]; [19],0
same,Blackgrass plant response rating,[11]; [23],0
same,Wheat plant response rating,[12]; [19],0
same,Wheat plant response rating,[12]; [22],0
same,Wheat plant response rating,[12]; [23],10
same,"Oat, Wild plant response rating",[13]; [21],0
same,"Oat, Wild plant response rating","[13]; Postemergence, 500 g ai/ha",0
same,Rice plant response rating,[14],10
same,"Sedge, Umbrella plant response rating",[15],70
same,Ducksalad plant response rating,[16],0
same,Barnyardgrass plant response rating,[17],0
